Results: US9211290B2, “Solid dispersions of amorphous paroxetine mesylate” (priority 2012, dated 2015)

Experiments:
[1] = Aqueous solubility of paroxetine mesylate Form A; format: physicochemical; conditions: water
[2] = Physical stability of solid dispersions exposed in open containers to temperature/humidity stress (PLM, XRPD); format: physicochemical
Description: X-ray Powder Diffraction (XRPD): XRPD patterns were collected using a PANalytical X'Pert Pro diffractometer. The specimen was analyzed using Cu radiation produced using an Optix long fine-focus source. An elliptically graded multilayer mirror was used to focus the Cu Kα X-rays of the source through the specimen and onto the detector. The specimen was sandwiched between 3-micron thick films, analyzed in transmission geometry, and rotated to optimize orientation statistics. Soller slits were used for the incident and diffracted beams to minimize axial divergence. Diffraction patterns were collected using a scanning position-sensitive detector (X'Celerator) located 240 mm from the specimen. Prior to the analysis, a silicon specimen (NIST standard reference material 640d) was analyzed to verify the position of the silicon 111 peak.
Polarized Light Microscopy (PLM): Polarized light microscopy was performed using a Leica DM LP microscope equipped with Spot Insight color camera (model 3.2.0). […]
Physical stability experiments were conducted by exposing the dispersions in open containers at Room Temperature (RT) and at elevated temperature and different humidities (expressed as relative humidity, RH). […]
Physical stability was evaluated visually at RT/75% RH after approximately 24 h by PLM for evidence of birefringence and extinction indicative of crystalline material. […]

SMILES	solubility [1]	Acceptable Physical Stability? RT/58% RH 3 d ([2]; 25° C./58% RH used instead of RT/58% RH (footnote b), 3 d)	Acceptable Physical Stability? 60° C./75% RH 2 h ([2]; 60° C./75% RH, 2 h)
CS(=O)(=O)O.Fc1ccc([C@@H]2CCNC[C@H]2COc2ccc3c(c2)OCO3)cc1 [paroxetine mesylate Form A, paroxetine mesylate]	> 1000 mg/mL		
CS(=O)(=O)O.Fc1ccc([C@@H]2CCNC[C@H]2COc2ccc3c(c2)OCO3)cc1 [Example 1-2, paroxetine mesylate]		N	N
